Laboratory results reported in US6737425B1, “N,N-substituted cyclic amine derivatives” (Eisai Co., Ltd., priority 1998, dated 2004).
Counter-ions that a name gives are not always drawn.

Assays:
[1] = system: glutamic acid release from rat cerebral cortex slices; test: Inhibitory activity on glutamic acid release (cerebral cortex slices, high-conc. KCl); type: cell-based; conditions: glutamic acid release induced with 50 mM KCl, HPLC
Protocol: Inhibitory Activity on Glutamic Acid Release
Cerebral cortexes were isolated from SD strain male rats (8-week-old) and used to prepare 300 μm×300 μm slices by use of a slice chopper. The prepared slices were incubated at 37° C. for 30 minutes in solution C (120 mM NaCl, 4 mM KCl, 10 mM MgSO4, 16 mM NaHCO3, 10 mM glucose, 1 mM NaH2PO4, 10 mM HEPES-NaOH pH 7.4) in the presence of 95% O2/5% CO2. Thereafter, solution C was exchanged with fresh one, followed by further incubation for 30 minutes.
The cerebral cortex slices were incubated in a 24-wells plate for cell culture according to a multi-well method (Brain Res., 402, 255-263, 1987), and the release of glutamic acid was induced with 50 mM KCl. Solution D (120 mM NaCl, 4 mM KCl, 1.2 mM CaCl2, 1 mM MgSO4, 16 mM NaHCO3, 10 mM glucose, 1 mM NaH2PO4, 10 mM HEPES-NaOH pH 7.4) was aerated with 95% O2/5% CO2 and kept at 37° C. and used in this experiment. 50 mM KCl containing the same total amount of K^+ and Na^+ was prepared. Slices corresponding to 1 to 2 mg protein were placed on an upper cup provided with a mesh at the bottom, and 1.3 ml solution C or 50 mM KCl solution was introduced into a lower well, and the upper cup was transferred to a new well. 20 minutes before and 5 minutes after reaction was intiated, the test compound was added to solution D or 50 mM KCl.
Glutamic acid was quantified by HPLC using fluorescent etor (Ex. 330 nm Em. […]). The eluting solvent used was prepared by diluting 150 ml sodium citrate buffer for automatic amino acid analysis (Wako Pure Chemical Industries) 10-fold with distilled water, then adding MgCl2 thereto at the final concentration of 50 mM, and further diluting it twice with acetonitrile. The flow rate was 2.0 ml/min. The column used was Asahipak (ES-502N Denko, K. K.). The glutamic acid was converted into a derivative by addition, to 50 μl sample, of 50 μl deriving agent (10 mg o-phthalaldehyde/500 μl MeOH, 10 μl b-mercaptopropionic acid, 0.15 M sodium borate buffer pH 9.5, 100 μl) followed by stirring (Neuroscience Lett., 96, 202-206, 1989).

[2] = system: voltage-dependent calcium channels (cerebral cortex synaptosome); test: Measurement of voltage-dependent calcium channel activity by the use of a fluorescent pigment (fura 2); type: cell-based; conditions: rat cerebral cortex synaptosome, fura 2, KCl stimulation, compound incubated 10 minutes
Protocol: Measurement of Voltage-dependent Calcium Channel Activity by the use of a Fluorescent Pigment (fura 2)
Cerebral cortexes were removed from cut rat brains and disrupted roughly with scissors. These were introduced into a homogenizer, homogenized in 0.3 M saccharose and centrifuged at 4° C. (1,500 g×10 min). The resulting supernatant was further centrifuged at 4° C. (10,000 g×20 min). The resulting precipitates were suspended in 0.3 M saccharose. The suspension was layered on 0.8 M saccharose and centrifuged (10,000 g×30 min.).
4 μM fura 2/AM (Dojin Ltd.) was suspended in solution A to prepare a loading solution. To the synaptosome solution prepared in the method described above was added an equal volume of the loading solution, and the mixture was incubated for 40 minutes at room temperature.
As comparative and control compound, verapamil hydrochloride was used.

Row | Compound | IC50 ([1]; Rattus norvegicus) | IC50 [2] | IC50 ([2]; Hydrochloride) | IC50 ([1]; Hydrochloride)
1 | CC(C)C(C#N)(CCCN1CCN(CCOc2ccc(F)cc2)CC1)c1ccc(Cl)cc1 (stereo not drawn) [Example 10, 1-[4-Cyano-5-methyl-4-(4-chlorophenyl)hexyl]-4-[2-(4-fluorophenoxy)ethyl]piperazine] | 2 µM | 3.2 µM | – | –
2 | CC(C)C(C#N)(CCCN1CCN(CCOc2ccc(F)cc2)CC1)c1ccccc1 (single isomer, unassigned; (-)) [Example 75, hydrochloride] | 2.9 µM | – | 4.5 µM | –
3 | Cc1ccc(C(C#N)(CCCN2CCN(CCOc3ccc(F)cc3)CC2)C(C)C)cc1 (stereo not drawn) [Example 9, 1-[4-Cyano-5-methyl-4-(4-methylphenyl)hexyl]-4-[2-(4-fluorophenoxy)ethyl]piperazine] | 2.4 µM | 3.5 µM | – | –
4 | N#CC(CCCN1CCN(CCOc2ccc(F)cc2)CC1)(c1ccccc1)C1CCCCC1 (single isomer, unassigned; (-)) [Example 79, (−)-1-[(4-Cyano-4-cyclohexyl-4-phenyl)butyl]-4-[2-(4-fluorophenoxyl)ethyl]piperazine Hydrochloride] | 5.9 µM | – | 3.3 µM | –
5 | COc1ccc(C(C#N)(CCCN2CCN(CCOc3ccc(F)cc3)CC2)C(C)C)cc1 (stereo not drawn) [Example 11, 1-[4-Cyano-5-methyl-4-(4-methoxyphenyl)hexyl]-4-[2-(4-fluorophenoxy)ethyl]piperazine] | 3.8 µM | 4.8 µM | – | –
6 | CC(C)C(C#N)(CCCN1CCN(CCOc2ccc(F)cc2)CC1)c1cccs1 (stereo not drawn) [Example 20, 1-{[4-Cyano-5-methyl-4-(2-thienyl)hexyl]}-4-[2-(4-fluorophenoxy)ethyl]piperazine] | 1.9 µM | 5.5 µM | – | –
7 | CC(C)C(C#N)(CCCN1CCN(CCOc2ccc(F)cc2)CC1)c1ccccc1F (stereo not drawn) [Example 22, 1-{[4-Cyano-5-methyl-4-(2-fluorophenyl)hexyl]}-4-[2-(4-fluorophenoxy)ethyl]piperazine] | 4.1 µM | 5.4 µM | – | –
8 | CC(C)C(C#N)(CCCN1CCN(CCOc2ccc(F)cc2)CC1)c1cccc(F)c1 (stereo not drawn) [Example 23, 1-[{4-Cyano-5-methyl-4-(3-flourophenyl)hexyl]}-4-[2-(4-fluorophenoxy)ethyl]piperazine] | 2.5 µM | 4.3 µM | – | –
9 | CC(C)C(C#N)(CCCN1CCN(CCOc2ccc(F)cc2)CC1)c1ccccc1 (single isomer, unassigned; (+)) [Example 76, (+)-1-[(4-Cyano-5-methyl-4-phenyl)hexyl]-4-[2-(4-fluorophenoxyl)ethyl]piperazine Hydrochloride] | – | – | 5.8 µM | 3.9 µM
10 | CC(C)C(C#N)(CCCN1CCN(CCN(C)c2ccc(F)cc2)CC1)c1ccccc1 (stereo not drawn) [Example 52, 1-[(4-Cyano-5-methyl-4-phenyl)hexyl]-4-{2-[N-(4-fluorophenyl)-N-methylamino]ethyl}piperazine] | 2.9 µM | 3.8 µM | – | –
11 | CC(C)C(C#N)(CCCN1CCN(CCOc2ccc(F)cc2)CC1)c1ccc(F)cc1 (stereo not drawn) [Example 24, 1-{[4-Cyano-5-methyl-4-(4-fluorophenyl)hexyl]}-4-[2-(4-fluorophenoxy)ethyl]piperazine] | 2.4 µM | 3.9 µM | – | –
12 | CC(C)C(C#N)(CCCN1CCN(CCOc2ccc(Cl)cc2)CC1)c1ccccc1 (stereo not drawn) [Example 36, 1-[(4-Cyano-5-methyl-4-phenyl)hexyl]-4-[2-(4-chlorophenoxy)ethyl]piperazine] | 4.2 µM | 3.4 µM | – | –
13 | CC(C)C(C#N)(CCCN1CCN(CCC(O)c2ccc(F)cc2)CC1)c1ccccc1 (stereo not drawn) [Example 60, 1-[(4-Cyano-5-methyl-4-phenyl)hexyl]-4-[-hydroxy-3-(4-flurophenyl)propyl]piperazine] | – | 10 µM | – | –
14 | Cc1cccc(/C=C/c2ccccc2OCCN2CCN(CCCC(C#N)(c3ccccc3)C(C)C)CC2)n1 (stereo not drawn) [Example 118, 1-[(4-Cyano-5-methyl-4-phenyl)hexyl]-4-{2-[2-(6-methyl-2-pyridyl)vinylphenoxyl]ethyl}piperazine] | – | 6.4 µM | – | –
15 | CC(C)C(C#N)(CCCN1CCN(CCOc2ccc3c(c2)OCO3)CC1)c1ccccc1 (stereo not drawn) [Example 94, 1-[(4-Cyano-5-methyl-4-phenyl)hexyl]-4-{2-[3,4-(methylenedioxy)phenoxy]ethyl}piperazine] | – | 6.1 µM | – | –
16 | CC(C)C(C#N)(CCCN1CCN(CCOc2ccc(F)c(F)c2)CC1)c1ccccc1 (stereo not drawn) [Example 35, 1-[(4-Cyano-5-methyl-4-phenyl)hexyl]-4-[2-(3,4-difluorophenoxy)ethyl]piperazine] | – | 5.2 µM | – | –
17 | CC(C)C(C#N)(CCCN1CCN(CCOc2cccc3ccccc23)CC1)c1ccccc1 (stereo not drawn) [Example 103, 1-[(4-Cyano-5-methyl-4-phenyl)hexyl]-4-[2-(1-naphthyloxy)ethyl]piperazine] | – | 2.5 µM | – | –
18 | N#CC(F)(CCCN1CCN(CCOc2ccc(F)cc2)CC1)c1ccccc1 (stereo not drawn) [Example 85, 1-[(4-Cyano-4-fluoro-4-phenyl)butyl]-4-[2-(4-fluorophenoxy)ethyl]piperazine] | – | 16 µM | – | –
19 | CC(C)C(C#N)(CCCN1CCN(CCOc2cccc(-c3ccccc3)c2)CC1)c1ccccc1 (stereo not drawn) [Example 120, 1-[(4-Cyano-5-methyl-4-phenyl)hexyl]-4-[2-(3-phenylphenoxy)ethyl]piperazine] | – | 4.1 µM | – | –
20 | CC(C)C(C#N)(CCN1CCN(CCOc2ccc(F)cc2)CC1)c1ccccc1 (stereo not drawn) [Example 25, 1-[(3-Cyano-4-methyl-3-phenyl)pentyl]-4-[2-(4-fluourophenoxy)ethyl]piperazine] | – | 9.7 µM | – | –
21 | CC(C)C(C#N)(CCCN1CCN(CCOc2ccc(F)cc2)CC1)c1ccc(C#N)cc1 (stereo not drawn) [Example 15, 1-[4-Cyano-5-methyl-4-(4-cyanonphenyl)hexyl]-4-[2-(4-fluorophenoxy)ethyl]piperazine] | – | 9.8 µM | – | –
22 | CC(C)C(C#N)(CCCCN1CCN(CCOc2ccc(F)cc2)CC1)c1ccccc1 (stereo not drawn) [Example 34] | – | 3.8 µM | – | –
23 | CC(C)C(C#N)(CCCN1CCN(CCOc2cccnc2)CC1)c1ccccc1 (stereo not drawn) [Example 100, 1-[(4-Cyano-5-methyl-4-phenyl)hexyl]-4-[2-(3-pyridyloxy)ethyl]piperazine] | – | > 16 µM | – | –
24 | CC(C)C(C#N)(CCCN1CCN(CCOc2ccc(C(F)(F)F)cc2)CC1)c1ccccc1 (stereo not drawn) [Example 102, 1-[(4-Cyano-5-methyl-4-phenyl)hexyl]-4-[2-(4-trifluoromethylphenoxy)ethyl]piperazine] | – | 2.7 µM | – | –
